What was measured:
[1] = biological target: T1, human Aurora B kinase (Homo sapiens, UniProt Q96GD4); experiment: Aurora B Kinase Assay (mobility shift assay, ATP at Km); format: biochemical; conditions: 15 μM ATP (Km), read-out: AurB Enzymatic Activity
T1 construct: purchased Carna 05-102
Procedure: Compounds were tested by Mobility shift assay with ATP concentration at Km. The assay used human Aurora B kinase (Carna 05-102). Test compounds were prepared and diluted in DMSO in 3-fold serial dilutions to 50× of the final testing concentrations. The compounds were then further diluted to 5× by the kinase reaction buffer (50 mM HEPES pH 7.5, 0.0015% Brij-35). The enzymatic reaction for compound testing was performed in a white 384-well polypropylene plate (Corning 3573) with a total reaction volume of 25 μl containing 9 nM Aurora B, 3 μM peptide substrate FAM-P21 (GL Biochem 116370), and 15 μM ATP (Sigma A7699-1G). The assay started with loading Aurora B diluted in kinase reaction buffer to wells, followed by addition of equal volume of 5× compounds for 15-min incubation at the room temperature for pre-treatment. The enzymatic reaction was initiated by addition of mixture of the substrate and ATP prepared in kinase reaction buffer. After incubation at 28° C. for one hour, 25 μl of stopper buffer (a mixture of 100 mM HEPES pH 7.5 buffer, 0.015% Brij-35, 50 mM EDTA and 0.2% of coating reagent 3 (Cliper Lifesciences)). After 30 minutes of incubation at room temperature, the plate was read in a Caliper. Percent of control was calculated as the percentage of compound-treated vs 2% DMSO vehicle-treated. The dose-response curves were generated and the IC50 values were calculated by nonlinear sigmoid curve fitting using XLFit.

[2] = tested on: BAF3 cells; experiment: BAF3 Cell Proliferation Assay (CellTiter-Glo, without RET driven, IL-3); format: cell-based; conditions: Mus musculus; growth inhibition in BAF3 cells, 72 hours, with IL-3; read-out: BAF3 Cellular Activity
Procedure: Compounds disclosed herein were tested for the inhibition BAF3 cells proliferation without RET driven by CellTiter-Glo assay. In this assay, a complete media was prepared by adding 10% fetal bovine serum and 1 ng/ml IL-3 to RPMI-1640 medium (Life technology) for BAF3 cells. BAF3 cells were added to each of 88 wells of a 96 well plate at a seeding density of 2,000 cells/well/95 μL. The cells were allowed to attach to the plate by incubating at 37° C. for 24 hours. The compound was dissolved in DMSO (SIGMA). A solution of test compound was prepared in complete media by serial dilution to obtain the following concentrations: 200 μM, 66.7 μM, 22.2 μM, 7.4 μM, 2.5 μM, 0.82 μM, 0.27 μM, 0.091 μM and […]. The test compound solution (5 μL) was added to each of 80 cell-containing wells. The final concentrations of the compound were following: 10 μM, 3.33 μM, 1.11 μM, 0.37 μM, 0.12 μM, 0.041 μM, 0.014 μM, 0.0046 μM and 0.0015 μM. The final concentration of DMSO is 0.1%. To the 8 remaining cell-containing wells, only complete media (containing 0.1% DMSO) was added to form a control group in order to measure maximal proliferation. To the remaining 8 empty wells, complete media was added to for a vehicle control group in order to measure background. The plates were incubated at 37° C. for 72 hours. 50 μl of CellTiter-Glo® Reagent was added to each well. The contents were mixed for 2 minutes on an orbital shaker to induce cell lysis, and then were incubated at room temperature for 10 minutes to stabilize luminescent signal. Luminescence was recorded on Paradigm. Cell viability (CV %) was calculated relative to vehicle (DMSO) treated control wells. The IC50 was calculated using GraphPad Prism.

[3] = biological target: T2, human RET kinase (Homo sapiens, UniProt P07949); experiment: RET Kinase Assay (mobility shift assay, ATP at Km); format: biochemical; conditions: 23 μM ATP (Km), read-out: RET Enzymatic Activity
T2 construct: purchased Carna 08-159
Procedure: Compounds were tested by Mobility shift assay with ATP concentration at Km. The assay used human RET kinase (Carna 08-159). Test compounds were prepared and diluted in DMSO in 3-fold serial dilutions to 50× of the final testing concentrations. The compounds were then further diluted to 5× by the kinase reaction buffer (50 mM HEPES pH 7.5, 0.0015% Brij-35). The enzymatic reaction for compound testing was performed in a white 384-well polypropylene plate (Corning 3573) with a total reaction volume of 25 μl containing 7 nM RET, 3 μM peptide substrate FAM-P2 (GL Biochem 112394), and 23 μM ATP (Sigma A7699-1G). The assay started with loading RET diluted in kinase reaction buffer to wells, followed by addition of equal volume of 5× compounds for 15-min incubation at the room temperature for pre-treatment. The enzymatic reaction was initiated by addition of mixture of the substrate and ATP prepared in kinase reaction buffer. After incubation at 28° C. for one hour, 25 μl of stopper buffer (a mixture of 100 mM HEPES pH 7.5 buffer, 0.015% Brij-35, 50 mM EDTA and 0.2% of coating reagent 3 (Cliper Lifesciences)). After 30 minutes of incubation at room temperature, the plate was read in a Caliper. Percent of control was calculated as the percentage of compound-treated vs 2% DMSO vehicle-treated. The dose-response curves were generated and the IC50 values were calculated by nonlinear sigmoid curve fitting using XLFit.

[4] = biological target: T3, BAF3-KIF5B-RET cells (Homo sapiens, UniProt P07949); experiment: BAF3-KIF5B-RET Cell Proliferation Assay (CellTiter-Glo); format: cell-based; conditions: growth inhibition, 72 hours; Table 2; read-out: BA/F3-KIF5B-RET Cellular activity
T3 construct: fused on or other part: P33176 (Kinesin-1 heavy chain)
Procedure: Compounds disclosed herein were tested for the inhibition of RET by a cancer cell proliferation assay commonly known as CellTiter-Glo assay. In this assay, a complete media was prepared by adding 10% fetal bovine serum to RPMI-1640 medium (Life technology) for RET-driven cancer cells (BAF3-FIF5B-RET, Ba/F3-KIF5B-RET-G810R, Ba/F3-TEL-RET-M918T or Ba/F3-KIF5B-RET-V804M). Individual RET-driven type of cells were added to each of 88 wells of a 96 well plate at a seeding density of 2,000 cells/well/95 μL. The cells were allowed to attach to the plate by incubating at 37° C. for 24 hours. The compound was dissolved in DMSO (SIGMA). A solution of test compound was prepared in complete media by serial dilution to obtain the following concentrations: 20 μM, 6.67 μM, 2.22 μM, 0.74 μM, 0.25 μM, 0.082 μM, 0.027 μM, 0.0091 μM and 0.0030 μM. The test compound solution (5 μL) was added to each of 80 cell-containing wells. The final concentrations of the compound were following: 1 μM, 0.33 μM, 0.11 μM, 0.037 μM, 0.012 μM, 0.0041 μM, 0.0014 μM, 0.00046 μM and 0.00015 μM. The final concentration of DMSO is 0.1%. To the 8 remaining cell-containing wells, only complete media (containing 0.1% DMSO) was added to form a control group in order to measure maximal proliferation. To the remaining 8 empty wells, complete media was added to for a vehicle control group in order to measure background. The plates were incubated at 37° C. for 72 hours. 50 μl of CellTiter-Glo® Reagent was added to each well. Mix contents for 2 minutes on an orbital shaker to induce cell lysis. Incubate at room temperature for 10 minutes to stabilize luminescent signal. Record luminescence on Paradigm. Cell viability (CV %) was calculated relative to vehicle (DMSO) treated control wells. The IC50 was calculated using GraphPad Prism.

[5] = biological target: T4, human KDR kinase (Homo sapiens, UniProt P35968); experiment: KDR Kinase Assay (mobility shift assay, ATP at Km); format: biochemical; conditions: 92 μM ATP (Km), read-out: KDR Enzymatic Activity
T4 construct: purchased Carna 08-191
Procedure: Compounds were tested by Mobility shift assay with ATP concentration at Km. The assay used human KDR kinase (Carna 08-191). Test compounds were prepared and diluted in DMSO in 3-fold serial dilutions to 50× of the final testing concentrations. The compounds were then further diluted to 5× by the kinase reaction buffer (50 mM HEPES pH 7.5, 0.0015% Brij-35). The enzymatic reaction for compound testing was performed in a white 384-well polypropylene plate (Corning 3573) with a total reaction volume of 25 μl containing 1.2 nM KDR, 3 μM peptide substrate FAM-P22 (GL Biochem 112393), and 92 μM ATP (Sigma A7699-1G). The assay started with loading RET diluted in kinase reaction buffer to wells, followed by addition of equal volume of 5× compounds for 15-min incubation at the room temperature for pre-treatment. The enzymatic reaction was initiated by addition of mixture of the substrate and ATP prepared in kinase reaction buffer. After incubation at 28° C. for one hour, 25 μl of stopper buffer (a mixture of 100 mM HEPES pH 7.5 buffer, 0.015% Brij-35, 50 mM EDTA and 0.2% of coating reagent 3 (Cliper Lifesciences)). After 30 minutes of incubation at room temperature, the plate was read in a Caliper. Percent of control was calculated as the percentage of compound-treated vs 2% DMSO vehicle-treated. The dose-response curves were generated and the IC50s were calculated by nonlinear sigmoid curve fitting using XLFit.

T3 sequence (P07949 whole entry, change not shown, the tested form may be a part): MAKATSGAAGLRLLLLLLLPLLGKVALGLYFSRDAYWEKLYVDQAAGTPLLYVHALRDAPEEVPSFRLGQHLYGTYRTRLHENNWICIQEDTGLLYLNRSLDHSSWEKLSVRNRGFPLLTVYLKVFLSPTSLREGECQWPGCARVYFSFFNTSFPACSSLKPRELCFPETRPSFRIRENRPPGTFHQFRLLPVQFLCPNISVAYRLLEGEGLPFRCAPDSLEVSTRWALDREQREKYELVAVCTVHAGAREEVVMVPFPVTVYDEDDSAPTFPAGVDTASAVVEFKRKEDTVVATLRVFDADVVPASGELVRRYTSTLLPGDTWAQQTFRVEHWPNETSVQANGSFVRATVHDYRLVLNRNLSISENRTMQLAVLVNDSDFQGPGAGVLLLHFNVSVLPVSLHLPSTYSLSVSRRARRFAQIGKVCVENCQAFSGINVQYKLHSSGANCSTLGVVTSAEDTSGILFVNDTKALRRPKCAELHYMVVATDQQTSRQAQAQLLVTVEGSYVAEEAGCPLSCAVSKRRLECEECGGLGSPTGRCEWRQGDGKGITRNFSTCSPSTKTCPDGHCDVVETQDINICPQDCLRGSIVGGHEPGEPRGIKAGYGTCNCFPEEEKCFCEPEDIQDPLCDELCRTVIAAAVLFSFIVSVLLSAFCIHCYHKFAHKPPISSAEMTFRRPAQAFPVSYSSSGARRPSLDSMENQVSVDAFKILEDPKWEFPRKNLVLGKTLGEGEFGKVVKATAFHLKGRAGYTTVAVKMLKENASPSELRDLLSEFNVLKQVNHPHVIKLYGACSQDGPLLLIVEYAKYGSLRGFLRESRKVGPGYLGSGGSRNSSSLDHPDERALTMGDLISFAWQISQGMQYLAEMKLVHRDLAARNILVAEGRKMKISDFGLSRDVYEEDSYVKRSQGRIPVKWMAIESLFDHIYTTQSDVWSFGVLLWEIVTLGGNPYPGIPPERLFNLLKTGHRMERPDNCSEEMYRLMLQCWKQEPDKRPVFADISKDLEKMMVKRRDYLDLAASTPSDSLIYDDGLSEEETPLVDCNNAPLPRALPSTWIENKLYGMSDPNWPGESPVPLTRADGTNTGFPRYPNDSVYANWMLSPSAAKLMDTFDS
T1 sequence (Q96GD4 whole entry): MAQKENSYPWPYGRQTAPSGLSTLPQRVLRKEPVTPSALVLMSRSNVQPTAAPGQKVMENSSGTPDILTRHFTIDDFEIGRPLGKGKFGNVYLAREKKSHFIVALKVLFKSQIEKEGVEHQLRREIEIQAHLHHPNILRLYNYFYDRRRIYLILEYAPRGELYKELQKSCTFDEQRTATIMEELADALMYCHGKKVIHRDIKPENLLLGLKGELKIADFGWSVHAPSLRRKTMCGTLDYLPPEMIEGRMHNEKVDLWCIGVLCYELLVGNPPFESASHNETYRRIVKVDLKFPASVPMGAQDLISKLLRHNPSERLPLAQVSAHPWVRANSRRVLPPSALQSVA
T1 sequence (Q9NQS7 803-918 partner limits assumed): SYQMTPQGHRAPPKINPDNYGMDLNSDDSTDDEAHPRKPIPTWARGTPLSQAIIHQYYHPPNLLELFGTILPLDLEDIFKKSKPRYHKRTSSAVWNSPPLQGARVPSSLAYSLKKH
T2 sequence (P07949 29-1114): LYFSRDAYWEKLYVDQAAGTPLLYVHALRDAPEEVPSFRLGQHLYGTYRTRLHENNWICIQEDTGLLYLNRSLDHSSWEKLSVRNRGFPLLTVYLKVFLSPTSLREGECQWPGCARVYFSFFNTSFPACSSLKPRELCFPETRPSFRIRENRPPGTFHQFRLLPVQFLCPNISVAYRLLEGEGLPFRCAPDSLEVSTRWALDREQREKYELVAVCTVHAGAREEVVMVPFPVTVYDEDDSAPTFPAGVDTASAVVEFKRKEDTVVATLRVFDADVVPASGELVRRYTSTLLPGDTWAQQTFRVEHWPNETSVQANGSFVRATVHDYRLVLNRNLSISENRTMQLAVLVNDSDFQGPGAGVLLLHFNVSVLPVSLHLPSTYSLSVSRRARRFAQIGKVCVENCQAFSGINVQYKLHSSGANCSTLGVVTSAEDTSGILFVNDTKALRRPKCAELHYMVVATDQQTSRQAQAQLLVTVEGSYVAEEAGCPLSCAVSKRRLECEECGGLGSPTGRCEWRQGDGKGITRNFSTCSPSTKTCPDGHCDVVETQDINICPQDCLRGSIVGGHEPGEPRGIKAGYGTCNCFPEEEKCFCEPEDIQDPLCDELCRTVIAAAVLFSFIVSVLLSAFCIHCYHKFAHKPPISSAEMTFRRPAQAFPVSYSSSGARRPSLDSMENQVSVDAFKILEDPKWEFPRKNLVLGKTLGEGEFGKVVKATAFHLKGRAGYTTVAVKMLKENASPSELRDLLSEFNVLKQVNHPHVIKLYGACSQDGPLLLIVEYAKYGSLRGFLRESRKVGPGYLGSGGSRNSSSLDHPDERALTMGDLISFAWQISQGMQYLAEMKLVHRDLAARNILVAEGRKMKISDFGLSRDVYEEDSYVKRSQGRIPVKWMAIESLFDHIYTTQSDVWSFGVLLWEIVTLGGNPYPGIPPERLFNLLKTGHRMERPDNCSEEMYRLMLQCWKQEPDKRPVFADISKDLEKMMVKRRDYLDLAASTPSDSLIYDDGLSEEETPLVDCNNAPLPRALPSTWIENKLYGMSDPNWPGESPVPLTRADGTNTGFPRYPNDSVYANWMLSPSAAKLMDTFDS
T4 sequence (P35968 20-1356): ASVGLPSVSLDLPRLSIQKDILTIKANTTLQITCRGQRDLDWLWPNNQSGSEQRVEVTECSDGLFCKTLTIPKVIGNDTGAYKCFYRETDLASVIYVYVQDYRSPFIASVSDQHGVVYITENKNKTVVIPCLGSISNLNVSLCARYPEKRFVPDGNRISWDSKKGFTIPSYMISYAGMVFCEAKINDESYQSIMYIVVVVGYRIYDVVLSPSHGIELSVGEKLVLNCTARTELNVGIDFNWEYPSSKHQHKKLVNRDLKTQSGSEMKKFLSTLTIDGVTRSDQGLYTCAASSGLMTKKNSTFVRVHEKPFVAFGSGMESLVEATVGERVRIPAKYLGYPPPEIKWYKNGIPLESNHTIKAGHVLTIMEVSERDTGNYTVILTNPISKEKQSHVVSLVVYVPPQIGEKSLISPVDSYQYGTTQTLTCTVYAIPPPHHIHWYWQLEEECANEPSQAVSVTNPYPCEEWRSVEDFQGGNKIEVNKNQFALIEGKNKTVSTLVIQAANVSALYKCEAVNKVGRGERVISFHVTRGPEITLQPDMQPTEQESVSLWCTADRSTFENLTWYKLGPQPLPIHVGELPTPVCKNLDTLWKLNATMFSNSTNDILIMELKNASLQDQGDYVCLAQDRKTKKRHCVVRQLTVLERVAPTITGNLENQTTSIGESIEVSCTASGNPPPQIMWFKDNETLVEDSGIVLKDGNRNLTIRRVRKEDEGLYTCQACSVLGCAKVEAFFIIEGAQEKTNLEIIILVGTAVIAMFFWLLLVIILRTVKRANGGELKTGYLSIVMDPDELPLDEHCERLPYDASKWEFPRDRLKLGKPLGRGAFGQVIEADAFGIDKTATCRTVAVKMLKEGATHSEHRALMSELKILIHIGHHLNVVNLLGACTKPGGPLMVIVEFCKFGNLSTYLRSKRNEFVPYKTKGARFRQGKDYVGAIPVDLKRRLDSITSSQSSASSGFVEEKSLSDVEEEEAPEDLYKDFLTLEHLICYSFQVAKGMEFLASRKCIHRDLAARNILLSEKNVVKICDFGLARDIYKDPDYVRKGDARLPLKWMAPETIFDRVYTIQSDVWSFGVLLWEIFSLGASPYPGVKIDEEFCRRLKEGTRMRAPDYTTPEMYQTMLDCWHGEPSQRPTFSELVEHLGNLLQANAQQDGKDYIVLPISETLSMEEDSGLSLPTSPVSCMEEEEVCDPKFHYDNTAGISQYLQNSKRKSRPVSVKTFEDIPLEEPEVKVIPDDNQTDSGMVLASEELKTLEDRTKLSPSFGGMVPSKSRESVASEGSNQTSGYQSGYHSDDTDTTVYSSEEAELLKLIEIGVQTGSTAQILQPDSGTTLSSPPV

IC50 [5] [nM] | SMILES | IC50 [1] [nM] | IC50 [2] [nM] | IC50 [3] [nM] | GI50 [4] [nM]
– | COc1ccc(CN2C3CC2CN(c2ccc(-c4cc(-c5cc(C(C)(C)O)n(C)n5)cn5ncc(C#N)c45)cn2)C3)cn1 [Example 4, 6-(5-(2-hydroxypropan-2-yl)-1-methyl-1H-pyrazol-3-yl)-4-(6-(6-((6-methoxypyridin-3-yl)methyl)-3,6-diazabicyclo[3.1.1]heptan-3-yl)pyridin-3-yl)pyrazolo[1,5-a]pyridine-3-carbonitrile] | 128 | 2220 | 0.67 | 0.7
– | CC(C)(O)c1ccc(-c2cc(-c3ccc(N4C[C@@H]5[C@@H](CNC(=O)c6ncccc6Cl)[C@@H]5C4)nc3)c3c(C#N)cnn3c2)nc1 [Example 5, 3-chloro-N-(((1R,5S,6s)-3-(5-(3-cyano-6-(5-(2-hydroxypropan-2-yl)pyridin-2-yl)pyrazolo[1,5-a]pyridin-4-yl)pyridin-2-yl)-3-azabicyclo[3.1.0]hexan-6-yl)methyl)picolinamide] | 19.5 | 516 | 0.8 | 3
– | COc1ccc(CN2C3CC2CN(c2ccc(-c4cc(-c5ccc(C(C)(C)O)nc5)cn5ncc(C#N)c45)cn2)C3)cn1 [Example 8, 6-(6-(2-hydroxypropan-2-yl)pyridin-3-yl)-4-(6-(6-((6-methoxypyridin-3-yl)methyl)-3,6-diazabicyclo[3.1.1]heptan-3-yl)pyridin-3-yl)pyrazolo[1,5-a]pyridine-3-carbonitrile] | 45 | 1050 | 0.38 | 1.4
– | COc1ccc(CN2C3CC2CN(c2ccc(-c4cc(-c5cnc(C(C)(C)O)nc5)cn5ncc(C#N)c45)cn2)C3)cn1 [Example 10, 6-(2-(2-hydroxypropan-2-yl)pyrimidin-5-yl)-4-(6-(6-((6-methoxypyridin-3-yl)methyl)-3,6-diazabicyclo[3.1.1]heptan-3-yl)pyridin-3-yl)pyrazolo[1,5-a]pyridine-3-carbonitrile] | 743 | > 10000 | 3.5 | 30.5
– | COc1ccc(CN2C3CC2CN(c2ccc(-c4cc(-c5ccc(C6(O)CC6)cn5)cn5ncc(C#N)c45)cn2)C3)cn1 [Example 11, 6-(5-(1-hydroxycyclopropyl)pyridin-2-yl)-4-(6-(6-((6-methoxypyridin-3-yl)methyl)-3,6-diazabicyclo[3.1.1]heptan-3-yl)pyridin-3-yl)pyrazolo[1,5-a]pyridine-3-carbonitrile] | 66.4 | 3060 | 0.6 | 0.9
– | COc1ccc(CN2C3CC2CN(c2ccc(-c4cc(-c5ncc(C(C)(C)O)cn5)cn5ncc(C#N)c45)cn2)C3)cn1 [Example 13, 6-(5-(2-hydroxypropan-2-yl)pyrimidin-2-yl)-4-(6-(6-((6-methoxypyridin-3-yl)methyl)-3,6-diazabicyclo[3.1.1]heptan-3-yl)pyridin-3-yl)pyrazolo[1,5-a]pyridine-3-carbonitrile] | 183 | 2670 | 0.4 | 2.2
4.2 | CC(C)(O)c1ccc(-c2cc(-c3ccc(N4C5CC6CC4CC(NC(=O)c4ncccc4Cl)(C6)C5)nc3)c3c(C#N)cnn3c2)nc1 [Example 23, 3-chloro-N-((1R,3S,5s,7s)-2-(5-(3-cyano-6-(5-(2-hydroxypropan-2-yl)pyridin-2-yl)pyrazolo[1,5-a]pyridin-4-yl)pyridin-2-yl)-2-azaadamantan-5-yl)picolinamide] | – | 1140 | 1.7 | 0.5
– | CCC(=O)c1ccc(-c2cc(-c3ccc(N4CC5CC(C4)N5Cc4ccc(OC)nc4)nc3)c3c(C#N)cnn3c2)nc1 [Example 37, 4-(6-(6-((6-methoxypyridin-3-yl)methyl)-3,6-diazabicyclo[3.1.1]heptan-3-yl)pyridin-3-yl)-6-(5-propionylpyridin-2-yl)pyrazolo[1,5-a]pyridine-3-carbonitrile] | 138 | 4460 | 0.7 | 1.2
